4 compounds from patent US20120252721A1 (priority 2011, published 2012) can be followed below.

The test system of series [1] is HCV genotype 1b Con1 strain subgenomic luciferase replicon (Zluc). As to the kind of experiment: Luciferase replicon assay, genotype 1b. The series is classed as cell-based. To be noted: Hepatitis C virus. The procedure, abridged:
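Replicon-bearing Huh-7 cells (1×10^4 H1a-luc or 7.5×10^3 Zluc per well) dosed 3 h after plating with ten 5-fold compound dilutions, 72 h at 37 °C/5% CO2. Luciferase measured by ONE-glo luminescence; EC50 from dose-response fits, replicon-free Huh-7 as negative control.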

The subject of series [2] is HCV genotype 1a H77 strain subgenomic luciferase replicon (H1a-luc). As to the kind of experiment: Luciferase replicon assay, genotype 1a. The series is classed as cell-based. The conditions noted are these: Hepatitis C virus, read-out: EC50 1a. In short, it runs like this:
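Huh-7 cells carrying H1a-luc subgenomic replicon (luciferase-neomycin phosphotransferase fusion), seeded at 1×10^4 cells/well, dosed 3 h later with ten 5-fold compound dilutions for 72 h at 37 °C. Replication read as luciferase luminescence; replicon-free Huh-7 cells as negative control. EC50 from dose-response curve fits.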

In the next series the test system is H1a-luc or Zluc cells. Nature of the series: in vitro. The class given is cell-based, human. The conditions noted are these: Table 1B, cellular viability. The procedure, abridged:
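Cytotoxicity counter-screen in which the H1a-luc or Zluc cells were compound-treated and viability was read with the CellTiter 96 AQueous One (MTS) reagent by absorbance at 490 nm. CC50 values came from curve fitting.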

Series [3] concerns 1a-luc WT (HCV genotype 1a replicon). As to the kind of experiment: Luciferase replicon transient transfection assay, 1a-luc WT. The series is classed as cell-based. To be noted: Hepatitis C virus, 96 h, Huh7.5 cells, 4 days. Here is the method:
(§1) The luciferase replicon transient transfection assay measures the ability of a test compound to inhibit the replication of a transiently-transfected HCV luciferase-bearing wild-type or mutant replicon in cured human hepatoma cells (Huh7.5). The inhibition of HCV replication was measured by quantification of luciferase protein expression. This assay has been validated using a panel of genotype 1a and 1b replicons bearing mutations known to be associated with resistance to BMS-790052. Briefly, subconfluent Huh7.5 cells were electroporated with 10 μg of wild-type or mutant luciferase-bearing HCV replicon RNA. The cells were then seeded in 96-well opaque white plates at 3×10^4 cells/well in 150 μL/well and incubated for 4 hrs at 37° C./5% CO2. Ten 1:5 serial dilutions of each test compound were made in media (DMEM containing glucose, L-glutamine and sodium pyruvate, 10% fetal bovine serum, 100 IU/mL penicillin, 100 μg/mL streptomycin, 2 mM GlutaMAX, and 1×MEM non-essential amino acids (Mediatech, Inc. and Invitrogen Corp.)) at concentrations that were 4× higher than the final concentrations to be tested and 50 μL/well was added to the transfected cells. Untreated, mock-transfected cells served as a negative control of luciferase expression. The plates were incubated at 37° C./5% CO2 for 4 days whereupon the media was removed and 50 μL of ONE-glo luciferase substrate (Promega) was added to each well. The plates were agitated on a rotating platform at room temperature for 3 min and read in a Victor^3V microplate reader (Perkin-Elmer) using a 700 nm cut-off filter with a 1 sec read time. EC50 values were calculated from dose response curves from the resulting best-fit equations determined by Microsoft Excel and XLfit 4.1 software.

Series [4] has as its system 1a-luc Q30E (HCV genotype 1a replicon). Nature of the series: Luciferase replicon transient transfection assay, 1a-luc Q30E. The class given is cell-based, hepatitis C virus. The conditions noted are these: for EC50: Hepatitis C virus, 96 h, Huh7.5 cells, 4 days. Here is the method:
as §1

Series [5] deals with 1a-luc L31V (HCV genotype 1a replicon). Nature of the series: Luciferase replicon transient transfection assay, 1a-luc L31V. The class given is cell-based, hepatitis C virus. To be noted: for EC50: Hepatitis C virus, 96 h, Huh7.5 cells, 4 days. Here is the method: as §1
The test system of series [6] is 1a-luc Y93C (HCV genotype 1a replicon). As to the kind of experiment: Luciferase replicon transient transfection assay, 1a-luc Y93C. The series is classed as cell-based, hepatitis C virus. The conditions noted are these: for EC50: Hepatitis C virus, 96 h, Huh7.5 cells, 4 days. Here is the method:
as §1

Series [7] has as its system 1a-luc Y93H (HCV genotype 1a replicon). Nature of the series: Luciferase replicon transient transfection assay, 1a-luc Y93H. The conditions noted are these: for EC50: Hepatitis C virus, 96 h, Huh7.5 cells, 4 days. The series is classed as cell-based, hepatitis C virus. Here is the method: as §1
The test system of series [8] is 1a-luc Y93N (HCV genotype 1a replicon). Nature of the series: Luciferase replicon transient transfection assay, 1a-luc Y93N. To be noted: for EC50: Hepatitis C virus, 96 h, Huh7.5 cells, 4 days. The class given is cell-based, hepatitis C virus. Here is the method: as §1
Series [9] has as its system ZS11-luc WT (HCV genotype 1b replicon). Nature of the series: Luciferase replicon transient transfection assay, ZS11-luc WT. The class given is cell-based, hepatitis C virus. The conditions noted are these: for EC50: genotype 1b, ZS11-luc WT, Huh7.5 cells, 4 days; for Ratio: ZS11-luc (Table 1I). Here is the method:
as §1

In series [10] the test system is ZS11-luc L31F (HCV genotype 1b replicon). Nature of the series: Luciferase replicon transient transfection assay, ZS11-luc L31F. The series is classed as cell-based, hepatitis C virus. To be noted: for EC50: Hepatitis C virus, 96 h, Huh7.5 cells, 4 days. Here is the method:
as §1

The test system of series [11] is ZS11-luc L31M (HCV genotype 1b replicon). Nature of the series: Luciferase replicon transient transfection assay, ZS11-luc L31M. The series is classed as cell-based, hepatitis C virus. To be noted: for EC50: Hepatitis C virus, 96 h, Huh7.5 cells, 4 days. Here is the method:
as §1

Series [12] deals with ZS11-luc Y93C (HCV genotype 1b replicon). Nature of the series: Luciferase replicon transient transfection assay, ZS11-luc Y93C. The conditions noted are these: for EC50: Hepatitis C virus, 96 h, Huh7.5 cells, 4 days. The series is classed as cell-based, hepatitis C virus. Here is the method:
as §1

For series [13], the system named is ZS11-luc Y93H (HCV genotype 1b replicon). As to the kind of experiment: Luciferase replicon transient transfection assay, ZS11-luc Y93H. The class given is cell-based, hepatitis C virus. The conditions noted are these: for EC50: Hepatitis C virus, 96 h, Huh7.5 cells, 4 days. Here is the method:
as §1

[14] abbreviates: Hepatitis C virus, Huh7.5, 96 h.

Read-outs that look alike come from different tables or passages of the source.

In the case of `COC(=O)N[C@H](C(=O)N1CCC[C@H]1c1ncc(-c2ccc(-c3csc4c(-c5cnc([C@@H]6CCCN6C(=O)[C@@H](NC(=O)OC)C(C)C)[nH]5)csc34)cc2)[nH]1)C(C)C` [Compound A15, [(S)-1-((S)-2-{4-[4-(6-{2-[(S)-1-((S)-2-methoxycarbonylamino-3-methyl-butyryl)-pyrrolidin-2-yl]-3H-imidazol-4-yl}-thieno[3,2-b]thiophen-3-yl)-phenyl]-1H-imidazol-2-yl}-pyrrolidine-1-carbonyl)-2-methyl-propyl]-carbamic acid methyl ester], the EC50 in series [1] and in [2] (genotype 1a) was below 0.1 nM each time.
On to `COC(=O)N[C@H](C(=O)N1CCC[C@H]1c1ncc(-c2ccc(-c3csc4c(-c5cnc([C@@H]6CCCN6C(=O)[C@H](NC(=O)OC(C)(C)C)c6ccccc6)[nH]5)csc34)cc2)[nH]1)C(C)C` [Compound A111, [(S)-1-((S)-2-{4-[4-(6-{(S)-2-[1-((R)-2-tert-butoxycarbonylamino-2-phenyl-acetyl)-pyrrolidin-2-yl]-3H-imidazol-4-yl}-thieno[3,2-b]thiophen-3-yl)-phenyl]-1H-imidazol-2-yl}-pyrrolidine-1-carbonyl)-2-methyl-propyl]-carbamic acid methyl ester], for which the EC50 is below 0.1 nM in [1]; 0.1 to 1 nM in series [2]; 0.04 nM in [3]; 47 nM in series [4]; 36 nM in series [5]; 6 nM in series [6]. Besides, the 50% effective concentration (EC50) in series [7] was above 198 nM; in series [8], above 454 nM; in series [9] (setting [14]) it was 0.002 nM; in series [10], 0.01 nM; in [11], 0.01 nM; in series [12] it was 0.006 nM. Moreover, the EC50 in [13] is 0.08 nM. Besides, in the series with H1a-luc or Zluc cells, the CC50 is above 75000 nM. Besides, the Ratio is recorded as 957 in [4]; 768 in [5]; 146 in series [6]; above 4859 in series [7]; >11,202 in series [8]; 8 in series [10]. Further, the Ratio came to 7 in [11], 4 in [12] and 48 in [13].
For `COC(=O)N[C@H](C(=O)N1CCC[C@H]1c1nc2cc(-c3csc4c(-c5ccc(-c6cnc([C@@H]7CCCN7C(=O)[C@H](NC(=O)OC)c7ccccc7)[nH]6)cc5)csc34)ccc2[nH]1)C(C)C` [Compound A169, [(S)-1-((S)-2-{6-[6-(4-{(S)-2-[1-((R)-2-methoxycarbonylamino-2-phenyl-acetyl)-pyrrolidin-2-yl]-3H-imidazol-4-yl}-phenyl)-thieno[3,2-b]thiophen-3-yl]-1H-benzoimidazol-2-yl}-pyrrolidine-1-carbonyl)-2-methyl-propyl]-carbamic acid methyl ester], the concentration for a half-maximal effect (EC50) in [1] was below 0.1 nM; in [2] it was below 0.1 nM; in [3], 0.002 nM; in [4] it was 0.9 nM; in series [5], 0.9 nM; in [6] it was 0.08 nM. Further, the EC50 in series [7] was 9 nM; in series [8], 30 nM; in series [9] (setting [14]) it was 0.002 nM; in series [9], 0.0017 nM; in series [10], 0.01 nM; in series [11], 0.009 nM. Also, the EC50 in series [12] is 0.006 nM; in [13] it was 0.2 nM. This compound displayed a CC50 with H1a-luc or Zluc cells above 75000 nM. Further, the Ratio in series [4] is listed as 422; in [5] it was 425; in [6] it was 40; in series [7] it was 4428; in series [8], 14,363; in series [9], 1. The Ratio is on record as 4 in [10], 4 in series [11], 3 in series [12] and 82 in [13].
On to `COC(=O)N[C@H](C(=O)N1CCC[C@H]1c1ncc(-c2ccc(-c3csc4c(-c5ccc6[nH]c([C@@H]7CCCN7C(=O)[C@H](NC(=O)OC)c7ccccc7)nc6c5)csc34)cc2)[nH]1)C(C)C` [Compound A172, [(S)-1-((S)-2-{5-[4-(6-{(S)-2-[1-((R)-2-Methoxycarbonylamino-2-phenyl-acetyl)-pyrrolidin-2-yl]-3H-benzoimidazol-5-yl}-thieno[3,2-b]thiophen-3-yl)-phenyl]-1H-imidazol-2-yl}-pyrrolidine-1-carbonyl)-2-methyl-propyl]-carbamic acid methyl ester], for which the EC50 in [1] was below 0.1 nM; in [2], below 0.1 nM; in series [3] it was 0.004 nM; in series [4] it was 2 nM; in [5] it was 3 nM; in series [6], 0.4 nM. Moreover, the EC50 is 21 nM in [7]; 81 nM in [8]; 0.02 nM in series [10]; 0.01 nM in [11]; 0.01 nM in series [12]; 0.3 nM in series [13]. The CC50 in the series with H1a-luc or Zluc cells was above 75000 nM. In addition, the Ratio in series [4] is on record as 423; in series [5] it was 695; in [6], 96; in series [7], 5427; in series [8] it was 22,328; in series [9] it was 1. Moreover, the Ratio turned out to be 4 in [10], 3 in series [11], 2 in series [12] and 56 in [13].
